The source made the active and inactive calls.
How the values were obtained:
[1] = molecular target: Aryl hydrocarbon receptor (Homo sapiens, UniProt P35869); experiment: Luminescence-based cell-based high throughput dose response assay for activators of the Aryl Hydrocarbon Receptor (AHR). [Related pubchem assays: 2796 (Primary screen (AHR activators in singlicate)), 2845 (Confirmation screen (AHR activators in triplicate)), 434939 (Counterscreen (PXR activators in triplicate)), 2804 (Summary (AHR activators))]; type: ADME
Sequence of Aryl hydrocarbon receptor (P35869 whole entry): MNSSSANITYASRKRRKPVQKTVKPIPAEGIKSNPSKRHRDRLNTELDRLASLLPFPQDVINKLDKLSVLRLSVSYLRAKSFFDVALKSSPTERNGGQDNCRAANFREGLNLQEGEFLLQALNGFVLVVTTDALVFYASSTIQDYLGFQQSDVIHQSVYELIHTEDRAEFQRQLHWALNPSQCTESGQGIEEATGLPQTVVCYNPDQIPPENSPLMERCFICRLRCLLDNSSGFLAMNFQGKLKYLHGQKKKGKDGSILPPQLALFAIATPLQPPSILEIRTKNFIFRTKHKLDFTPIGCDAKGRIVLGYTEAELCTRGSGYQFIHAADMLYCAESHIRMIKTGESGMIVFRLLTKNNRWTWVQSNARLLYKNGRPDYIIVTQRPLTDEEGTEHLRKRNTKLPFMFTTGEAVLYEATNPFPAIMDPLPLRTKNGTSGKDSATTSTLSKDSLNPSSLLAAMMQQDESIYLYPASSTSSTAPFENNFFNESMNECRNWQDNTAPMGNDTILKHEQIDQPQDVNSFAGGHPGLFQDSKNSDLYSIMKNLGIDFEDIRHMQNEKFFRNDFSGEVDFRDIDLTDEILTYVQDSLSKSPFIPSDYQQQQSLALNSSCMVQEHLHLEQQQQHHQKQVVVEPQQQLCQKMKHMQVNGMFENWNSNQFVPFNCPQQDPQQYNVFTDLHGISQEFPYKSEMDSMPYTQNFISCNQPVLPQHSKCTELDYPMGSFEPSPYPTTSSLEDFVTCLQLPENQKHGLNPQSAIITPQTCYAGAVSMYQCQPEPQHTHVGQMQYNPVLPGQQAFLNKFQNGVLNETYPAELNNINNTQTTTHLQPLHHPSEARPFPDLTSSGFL

[2] = molecular target: Ubiquitin carboxyl-terminal hydrolase BAP1 (Homo sapiens, UniProt Q92560); experiment: BAP1 deubiquitinase inhibitors, dose response, biochemical (AID 714); type: functional
Sequence of Ubiquitin carboxyl-terminal hydrolase BAP1 (Q92560 whole entry): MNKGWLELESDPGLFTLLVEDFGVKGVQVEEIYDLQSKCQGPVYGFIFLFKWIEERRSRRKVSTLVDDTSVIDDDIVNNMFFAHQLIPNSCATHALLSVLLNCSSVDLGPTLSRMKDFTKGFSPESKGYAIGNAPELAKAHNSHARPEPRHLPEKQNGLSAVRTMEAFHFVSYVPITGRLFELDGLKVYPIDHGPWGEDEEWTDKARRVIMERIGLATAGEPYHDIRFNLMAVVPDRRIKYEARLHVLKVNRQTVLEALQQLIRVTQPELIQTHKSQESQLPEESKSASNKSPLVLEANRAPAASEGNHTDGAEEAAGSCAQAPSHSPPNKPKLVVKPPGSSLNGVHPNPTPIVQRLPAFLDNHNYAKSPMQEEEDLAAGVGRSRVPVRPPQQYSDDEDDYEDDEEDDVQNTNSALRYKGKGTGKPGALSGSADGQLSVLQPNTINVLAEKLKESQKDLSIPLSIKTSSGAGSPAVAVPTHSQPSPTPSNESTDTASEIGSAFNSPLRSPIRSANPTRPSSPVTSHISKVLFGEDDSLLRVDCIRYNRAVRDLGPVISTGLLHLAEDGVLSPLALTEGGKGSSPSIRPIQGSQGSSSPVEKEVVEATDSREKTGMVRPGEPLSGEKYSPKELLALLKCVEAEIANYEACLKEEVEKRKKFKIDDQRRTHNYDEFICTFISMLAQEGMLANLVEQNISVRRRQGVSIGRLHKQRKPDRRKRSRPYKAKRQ

Staphylococcus aureus = experiment: Inhibitors of Bacterial Quorum Sensing Structure Activity Relationship (SAR) Analysis: Dose Response Assay. [Related pubchem assays: 700, 527 ]; type: functional, organism-based
[3] = molecular target: Melanin-concentrating hormone receptor 1 (Homo sapiens, UniProt Q99705); experiment: Fluorescence-based counterscreen for antagonists of the G-protein coupled receptor 7 (GPR7): cell-based high throughput dose response assay to identify antagonists of the melanin-concentrating hormone receptor 1 (MCHR1).; type: functional
[4] = molecular target: E3 ubiquitin-protein ligase Mdm2 (Homo sapiens, UniProt Q00987); experiment: enhancers of MDM2-luciferase reporter signal, concentration-effect titration, project on inhibitors of MDM2 ubiquitin ligase, cellular assay, luminescent readout, 384-well plate format (AID 1394); type: functional;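 note: MDM2 E3 inhibitors raise luminescence so EC50 is for signal enhancement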
Sequence of E3 ubiquitin-protein ligase Mdm2 (Q00987 whole entry): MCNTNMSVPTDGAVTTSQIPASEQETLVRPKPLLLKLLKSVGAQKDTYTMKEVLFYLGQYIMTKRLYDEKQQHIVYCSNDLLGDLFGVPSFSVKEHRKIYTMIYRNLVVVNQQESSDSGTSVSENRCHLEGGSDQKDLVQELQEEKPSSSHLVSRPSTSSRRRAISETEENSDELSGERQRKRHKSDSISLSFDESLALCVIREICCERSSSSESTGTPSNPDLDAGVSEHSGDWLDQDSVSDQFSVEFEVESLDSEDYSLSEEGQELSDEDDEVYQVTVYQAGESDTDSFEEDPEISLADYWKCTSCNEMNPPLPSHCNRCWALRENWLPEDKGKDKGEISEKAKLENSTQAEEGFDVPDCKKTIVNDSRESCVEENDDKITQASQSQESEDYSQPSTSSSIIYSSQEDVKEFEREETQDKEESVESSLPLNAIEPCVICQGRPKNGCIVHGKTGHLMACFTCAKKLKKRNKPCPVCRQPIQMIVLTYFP

[5] = A High Throughput Confirmatory Assay used to Identify Novel Compounds that Inhibit Mycobacterium Tuberculosis in the absence of Glycerol.; type: functional
cells [6] = type: functional
Estrogen receptor beta = Estrogen receptor beta (Homo sapiens, UniProt Q92731); experiment: ERβ–SRC-3 coactivator interaction inhibitors, confirmation, orthogonal assay, biochemical, ELISA, streptavidin-HRP readout (AID 1060)
Sequence of Estrogen receptor beta (Q92731 whole entry): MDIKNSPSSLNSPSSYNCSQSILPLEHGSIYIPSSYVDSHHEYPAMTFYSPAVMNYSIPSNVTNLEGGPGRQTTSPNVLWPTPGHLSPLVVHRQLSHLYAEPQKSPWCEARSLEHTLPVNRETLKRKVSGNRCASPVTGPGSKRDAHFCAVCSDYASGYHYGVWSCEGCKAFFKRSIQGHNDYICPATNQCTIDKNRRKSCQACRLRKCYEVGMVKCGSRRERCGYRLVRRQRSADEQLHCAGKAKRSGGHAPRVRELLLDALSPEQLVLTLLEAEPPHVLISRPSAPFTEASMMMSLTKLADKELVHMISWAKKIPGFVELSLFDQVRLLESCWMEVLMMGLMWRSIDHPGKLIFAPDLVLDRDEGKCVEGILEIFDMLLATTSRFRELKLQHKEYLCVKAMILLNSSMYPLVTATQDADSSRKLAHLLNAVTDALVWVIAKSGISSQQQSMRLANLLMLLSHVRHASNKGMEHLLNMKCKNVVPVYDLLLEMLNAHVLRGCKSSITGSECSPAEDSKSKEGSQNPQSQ

[7] = Luminescence Cell-Based Dose Response to Identify Activators of 5'UTR Stem-Loop Driven Prion Protein mRNA Translation in H4-C Neuroglioblastoma Cells. [Related pubchem assays: 1829 (Project Summary), 1814 (Primary HTS)]; type: functional
[8] = Luminescence Cell-Based Dose Confirmation HTS to Identify Activators of 5'UTR Stem-Loop Driven Alpha-Synuclein mRNA Translation in H4 Neuroglioblastoma Cells. [Related pubchem assays: 1829 (Project Summary), 1814 (Primary HTS)]; type: functional
[9] = Luminescence Cell-Based Dose Response HTS to Identify Activators of Luciferase Translation or Activity in H4 […] Cells. [Related pubchem assays: 1829 (Project Summary), 1814 (Primary HTS)]; type: functional
H4 = experiment: Luminescence Cell-Based Dose Response HTS to Identify Activators of 5'UTR Stem-Loop Driven Prion Protein mRNA Translation in H4 Neuroglioblastoma Cells. [Related pubchem assays: 1829 (Project Summary), 1814 (Primary HTS)]; type: functional; details: Homo sapiens
[10] = Luminescence Cell-Based Dose Response to Identify Activators of Luciferase Translation or Activity in H4-C Neuroglioblastoma Cells. [Related pubchem assays: 1829 (Project Summary), 1814 (Primary HTS)]; type: functional
[11] = Luminescence Cell-Based Dose Confirmation to Identify Activators of 5'UTR Stem-Loop Driven Alpha-Synuclein mRNA Translation in H4 Neuroglioblastoma Cells. [Related pubchem assays: 1829 (Project Summary), 1814 (Primary HTS)]; type: functional
[12] = molecular target: Epstein-Barr nuclear antigen 1 (Epstein-Barr virus (strain B95-8) (HHV-4) (Human herpesvirus 4), UniProt P03211); experiment: EBNA-1 inhibitors, dose response, biochemical, fluorescence polarization, 1536-well (AID 2381); set-up: species or system human gammaherpesvirus 4;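 note: fluorescence polarization of a Cy5 DNA probe bound by EBNA-1 protein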
Sequence of Epstein-Barr nuclear antigen 1 (P03211 whole entry): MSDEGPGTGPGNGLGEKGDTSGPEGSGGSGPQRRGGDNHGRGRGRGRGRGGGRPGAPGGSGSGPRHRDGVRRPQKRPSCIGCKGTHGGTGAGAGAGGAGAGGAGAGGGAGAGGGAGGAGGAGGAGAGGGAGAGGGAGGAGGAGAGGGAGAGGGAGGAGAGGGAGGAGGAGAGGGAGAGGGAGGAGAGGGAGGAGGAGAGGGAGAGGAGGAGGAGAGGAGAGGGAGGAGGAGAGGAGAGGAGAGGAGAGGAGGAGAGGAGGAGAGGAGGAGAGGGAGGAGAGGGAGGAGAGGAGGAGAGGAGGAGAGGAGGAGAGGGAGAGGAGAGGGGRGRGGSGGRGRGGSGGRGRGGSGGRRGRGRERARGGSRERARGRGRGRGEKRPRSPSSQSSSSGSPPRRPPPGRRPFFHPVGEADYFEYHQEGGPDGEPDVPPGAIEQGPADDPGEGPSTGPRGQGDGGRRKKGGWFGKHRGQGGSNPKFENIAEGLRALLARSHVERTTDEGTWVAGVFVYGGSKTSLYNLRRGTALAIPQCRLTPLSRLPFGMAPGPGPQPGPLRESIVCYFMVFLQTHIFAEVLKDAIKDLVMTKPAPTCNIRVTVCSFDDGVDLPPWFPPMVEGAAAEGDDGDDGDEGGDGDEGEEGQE

[13] = molecular target: Lytic switch protein BZLF1 (Epstein-Barr virus (strain B95-8) (HHV-4) (Human herpesvirus 4), UniProt P03206); experiment: EBV ZTA inhibitors, dose response, counter-screen for EBNA-1 inhibitor project, biochemical, fluorescence polarization, Epstein-Barr virus, 1536-well (AID 2377); set-up: species or system human gammaherpesvirus 4;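 note: fluorescence polarization of Cy5-labelled ZRE DNA probe bound by purified Zta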
Sequence of Lytic switch protein BZLF1 (P03206 whole entry): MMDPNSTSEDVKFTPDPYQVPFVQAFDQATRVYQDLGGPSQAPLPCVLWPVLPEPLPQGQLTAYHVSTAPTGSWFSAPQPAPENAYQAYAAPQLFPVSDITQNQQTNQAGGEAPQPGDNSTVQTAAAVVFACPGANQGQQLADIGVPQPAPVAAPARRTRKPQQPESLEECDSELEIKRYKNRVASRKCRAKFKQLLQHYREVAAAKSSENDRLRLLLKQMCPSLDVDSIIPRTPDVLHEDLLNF

[14] = molecular target: T1, Mannose-6-phosphate isomerase (Homo sapiens, UniProt P34949); experiment: inhibitors of human PMI, primary screen, biochemical, fluorescence intensity, coupled assay (AID 1209)
T1 sequence (P34949 whole entry): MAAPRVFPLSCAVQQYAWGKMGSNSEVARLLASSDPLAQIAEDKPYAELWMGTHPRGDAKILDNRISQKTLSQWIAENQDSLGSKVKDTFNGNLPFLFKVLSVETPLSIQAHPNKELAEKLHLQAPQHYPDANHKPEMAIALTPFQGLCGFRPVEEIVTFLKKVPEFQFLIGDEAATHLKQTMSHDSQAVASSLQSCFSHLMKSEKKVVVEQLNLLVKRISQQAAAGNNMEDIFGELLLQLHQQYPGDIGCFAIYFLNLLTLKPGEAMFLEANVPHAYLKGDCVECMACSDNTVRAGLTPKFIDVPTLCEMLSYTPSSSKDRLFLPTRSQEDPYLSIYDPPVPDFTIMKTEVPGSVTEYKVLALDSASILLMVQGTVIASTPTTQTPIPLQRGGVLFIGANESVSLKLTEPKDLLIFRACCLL

[15] = inhibitors of firefly luciferase expression or activity, dose response, H4 neuroglioma cells, luminescence (AID 1990); type: functional, cell-based
[16] = A cytotoxicity screen of small molecule inhibitors of the PhoP region in Salmonella typhi identified in the primary screen. [Related pubchem assays: 1850, 1864, 1985 ]; type: functional
[17] = inhibitors of SNCA 5'UTR-driven reporter translation, confirmation, H4 neuroglioma cells, luminescence (AID 1988); type: functional, cell-based
Leucine aminopeptidase = molecular target: T2, Leucine aminopeptidase (Plasmodium falciparum 3D7, UniProt Q8IL11); experiment: P. falciparum M17LAP inhibitors, primary screen, biochemical, fluorogenic H-Leu-NHMec substrate, 1536-well (AID 1619); type: functional
T2 sequence (Q8IL11 whole entry): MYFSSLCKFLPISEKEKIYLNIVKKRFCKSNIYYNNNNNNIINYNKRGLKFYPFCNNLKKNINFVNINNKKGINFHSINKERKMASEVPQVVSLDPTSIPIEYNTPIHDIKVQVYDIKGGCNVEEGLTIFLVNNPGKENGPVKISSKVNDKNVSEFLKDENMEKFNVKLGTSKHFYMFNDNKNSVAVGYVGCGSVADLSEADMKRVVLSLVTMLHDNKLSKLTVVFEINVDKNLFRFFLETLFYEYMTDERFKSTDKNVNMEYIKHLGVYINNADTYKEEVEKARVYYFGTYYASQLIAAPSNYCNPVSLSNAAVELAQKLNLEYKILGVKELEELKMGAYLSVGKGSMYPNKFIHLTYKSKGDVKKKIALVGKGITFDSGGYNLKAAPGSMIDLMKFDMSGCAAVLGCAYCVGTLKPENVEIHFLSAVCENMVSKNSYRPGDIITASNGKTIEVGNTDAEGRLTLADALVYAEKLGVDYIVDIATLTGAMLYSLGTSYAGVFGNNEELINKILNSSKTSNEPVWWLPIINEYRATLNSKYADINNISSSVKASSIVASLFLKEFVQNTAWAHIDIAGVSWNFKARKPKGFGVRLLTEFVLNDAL

Aspartyl aminopeptidase = Aspartyl aminopeptidase (Plasmodium falciparum 3D7, UniProt Q8I2J3); experiment: Counterscreen for inhibitors of M1 and M17 aminopeptidases: QFRET-based biochemical high throughput dose response assay for inhibitors of the Plasmodium falciparum M18 Aspartyl Aminopeptidase (PFM18AAP). [Related PubChem assays: 1619 (Screening assay (M17LAP inhibitors).), 1445 (Screening assay (M1AAP inhibitors).)]
Procathepsin L = Procathepsin L (Homo sapiens, UniProt P07711); experiment: cathepsin L inhibitors, dose response, counter-screen for M1/M17 aminopeptidase inhibitor project, biochemical, QFRET, 1536-well (AID 2214)
Sequence of Procathepsin L (P07711 whole entry): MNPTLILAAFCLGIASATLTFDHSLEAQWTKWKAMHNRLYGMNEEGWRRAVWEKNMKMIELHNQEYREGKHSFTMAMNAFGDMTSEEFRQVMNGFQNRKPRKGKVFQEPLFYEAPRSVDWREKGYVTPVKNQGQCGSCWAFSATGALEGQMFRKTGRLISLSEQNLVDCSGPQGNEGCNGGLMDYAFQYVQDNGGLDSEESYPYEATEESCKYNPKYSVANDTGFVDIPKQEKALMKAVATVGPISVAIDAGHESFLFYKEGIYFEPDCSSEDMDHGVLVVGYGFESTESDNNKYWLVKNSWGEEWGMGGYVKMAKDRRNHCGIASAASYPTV

[18] = molecular target: Photoreceptor-specific nuclear receptor (Homo sapiens, UniProt Q9Y5X4); type: functional;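 note: potency for compounds that break the NR2E3 corepressor complex and count as activators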
Sequence of Photoreceptor-specific nuclear receptor (Q9Y5X4 whole entry): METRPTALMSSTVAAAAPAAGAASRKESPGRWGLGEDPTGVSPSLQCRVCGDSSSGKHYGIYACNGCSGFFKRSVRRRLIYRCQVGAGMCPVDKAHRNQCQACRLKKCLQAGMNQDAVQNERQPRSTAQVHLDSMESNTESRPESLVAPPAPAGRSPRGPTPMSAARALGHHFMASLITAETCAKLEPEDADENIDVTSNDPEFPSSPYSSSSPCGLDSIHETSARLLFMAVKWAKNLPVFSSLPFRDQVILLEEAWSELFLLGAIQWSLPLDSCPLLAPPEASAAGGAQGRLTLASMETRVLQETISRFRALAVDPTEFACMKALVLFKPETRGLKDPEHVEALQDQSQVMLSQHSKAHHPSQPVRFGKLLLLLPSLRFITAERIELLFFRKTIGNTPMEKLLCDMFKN

[19] = molecular target: Peroxisome proliferator-activated receptor gamma/Nuclear receptor corepressor 2 (Homo sapiens, UniProt P37231+Q9Y618); type: functional
Major prion protein = Major prion protein (Homo sapiens, UniProt P04156); type: functional, cell-based
cells [20] = experiment: cells
[21] = molecular target: T3, Luciferin 4-monooxygenase (Photinus pyralis, UniProt P08659); experiment: Counter Screen for Luciferase-based Assay Positives. [Related pubchem assays: 620, 618, 411 ]
T3 sequence (P08659 whole entry): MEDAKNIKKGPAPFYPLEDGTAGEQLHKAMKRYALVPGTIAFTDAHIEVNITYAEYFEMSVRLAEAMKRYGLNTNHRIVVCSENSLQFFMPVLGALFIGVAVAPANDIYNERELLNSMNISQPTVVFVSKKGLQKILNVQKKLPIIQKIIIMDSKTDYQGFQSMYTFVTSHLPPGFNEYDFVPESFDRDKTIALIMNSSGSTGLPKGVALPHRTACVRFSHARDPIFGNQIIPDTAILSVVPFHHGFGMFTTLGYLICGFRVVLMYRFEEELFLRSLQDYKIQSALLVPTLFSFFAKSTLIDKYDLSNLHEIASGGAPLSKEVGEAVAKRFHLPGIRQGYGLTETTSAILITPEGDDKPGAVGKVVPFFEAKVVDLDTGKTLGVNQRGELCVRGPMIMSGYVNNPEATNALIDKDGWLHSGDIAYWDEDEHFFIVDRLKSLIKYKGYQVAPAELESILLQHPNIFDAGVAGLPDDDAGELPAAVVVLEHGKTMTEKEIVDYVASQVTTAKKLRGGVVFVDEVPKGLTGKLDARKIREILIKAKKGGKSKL

[22] = molecular target: T3, Luciferin 4-monooxygenase; experiment: firefly luciferase enzyme inhibitors, dose response, biochemical, luminescence (AID 1891)
[23] = Luminescence Cell-Based Dose Confirmation HTS to Identify Inhibitors of Platelet Dense Granule Release. [Related pubchem assays: 1663 (Primary HTS), 1678 (Summary of Project)]; type: functional
HT-1080 = experiment: cytotoxicity in HT1080 fibrosarcoma cells, cell-based, fluorescence readout (AID 620); type: functional; details: Homo sapiens
Protein skinhead-1 = molecular target: T4, Protein skinhead-1 (Caenorhabditis elegans, UniProt P34707); type: functional
T4 sequence (P34707 whole entry): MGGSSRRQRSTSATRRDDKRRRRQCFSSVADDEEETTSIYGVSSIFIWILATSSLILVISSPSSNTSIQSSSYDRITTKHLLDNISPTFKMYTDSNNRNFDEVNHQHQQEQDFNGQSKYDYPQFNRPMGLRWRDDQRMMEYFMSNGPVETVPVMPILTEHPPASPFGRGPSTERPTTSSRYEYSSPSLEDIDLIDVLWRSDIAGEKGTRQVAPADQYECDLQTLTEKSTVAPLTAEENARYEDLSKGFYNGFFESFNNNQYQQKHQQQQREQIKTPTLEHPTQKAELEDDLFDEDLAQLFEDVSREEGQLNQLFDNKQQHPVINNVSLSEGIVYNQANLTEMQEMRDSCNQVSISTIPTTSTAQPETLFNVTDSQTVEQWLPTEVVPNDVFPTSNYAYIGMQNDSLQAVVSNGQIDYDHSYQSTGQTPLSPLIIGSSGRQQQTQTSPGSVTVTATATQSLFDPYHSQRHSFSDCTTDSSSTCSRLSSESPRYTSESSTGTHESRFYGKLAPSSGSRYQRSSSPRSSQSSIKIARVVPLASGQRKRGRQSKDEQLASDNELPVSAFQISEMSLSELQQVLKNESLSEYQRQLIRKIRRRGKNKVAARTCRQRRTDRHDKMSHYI

[24] = microbe, parasite or virus in culture; type: functional; details: Mycobacterium tuberculosis

COc1ccc(Cl)cc1C(=O)Nc1ccc(N(C)C(C)=O)cc1
EC50 [1]: 2.81 µM (active)

COc1ccc(NC(=O)c2c(NC(=O)CNCc3ccco3)sc3c2CCC3)c(OC)c1
IC50 [2]: 35.8 µM (not active)

Cc1ccc(Cl)c(Nc2ccccc2C(=O)O)c1Cl [MECLOFENAMIC ACID]
IC50 (Staphylococcus aureus): 0.877 µM (active)

Cc1cc(=O)oc2cc(OC(=O)c3ccccc3)ccc12
IC50 [3]: > 43.8 µM (not active)

O=C(Nc1ccc(F)cc1)c1ccccc1S(=O)(=O)c1ccccc1[N+](=O)[O-]
EC50 [4]: 0.53 µM (not active)

CCCCCC1CC(CC(=O)NC(=S)Nc2ccc([N+](=O)[O-])cc2)C(=O)O1 (centres undefined)
IC50 [5]: > 100 µM (active)
IC50 (cells [6]): 20.3 µM (active)

Fc1ccc(CSc2ncnc3c2oc2ccccc23)cc1
IC50 (Estrogen receptor beta): > 50 µM (not active)

Cc1oc2cc3c(C(=O)N4CCCCC4)c(C)oc3cc2c1C(=O)N1CCCCC1
EC50 [7]: > 12 µM (not active)
EC50 [8]: < 0.1 µM (active)
EC50 [9]: 12.2 µM (active)
EC50 (H4): > 120 µM (not active)
EC50 [10]: 0.573 µM (active)
EC50 [11]: 0.598 µM (active)

O=C(CCCCCNc1nc(S)nc2ccccc12)NCCc1ccc(Cl)cc1
IC50 [12]: 13.4 µM (not active)
IC50 [13]: > 111 µM (not active)

O=S(=O)(c1cccc(S(=O)(=O)N2CCC(n3nnc4ccccc43)CC2)c1)N1CCCCC1
IC50 [2]: 18.3 µM (active)

COc1ccccc1CNC(=O)c1ccc2nc3[nH]c4ccccc4c3nc2c1
IC50 [12]: 14.4 µM (not active)
IC50 [13]: > 111 µM (not active)

CCCCCC1(C)NC(=S)N(c2ccccc2)N1 (centres undefined)
IC50 [14]: > 50 µM (not active)

CCN(CC)S(=O)(=O)c1ccc(/C(O)=C(\C#N)c2nc3ccccc3n2C)cc1
EC50 [15]: > 120 µM (not active)
EC50 [16]: > 50 µM (active)
EC50 [17]: > 120 µM (not active)

Cc1cc(C)c(S(=O)(=O)c2ccccc2)c(OC(=O)c2cc(F)c(F)cc2Cl)n1
EC50 [4]: 186 µM (not active)

CC(C)c1ccc(NC(=O)C2CCCCC2C(=O)O)cc1 (centres undefined)
IC50 (Leucine aminopeptidase): 3.51 µM (active)
IC50 (Aspartyl aminopeptidase): > 73.5 µM (not active)
IC50 (Procathepsin L): > 59.6 µM (not active)

COCC(=O)N1CCc2ccc(NC(=O)c3ccc(C(F)(F)F)cc3)cc2C1
EC50 [1]: > 1.13 µM (active)

Brc1cc(Br)c2ncnc(N3CCCCC3)c2c1
IC50 [18]: 1.42 µM (active)
IC50 [19]: 2.36 µM (active)
IC50 (Major prion protein): 1.38 µM (active)
IC50 (cells [20]): > 138 µM (inactive)

CN(C)c1ccc(N/C=C/C(=O)c2ccco2)cc1
EC50 [21]: < 0.2 µM (active)
EC50 [22]: 1.9 µM (active)
EC50 [23]: 0.891 µM (active)
EC50 (HT-1080): > 50 µM (not active)
IC50 (Protein skinhead-1): 76.5 µM (inactive)

O=C1NCC(c2ccccc2)C1C(=O)N/N=C\c1ccc(-c2ccc(Cl)c(Cl)c2)o1 (centres undefined)
IC50 [5]: > 100 µM (active)
CC50 [24]: > 40 µM (active)

Cc1cc(C)c[n+](CC(=O)c2ccc(NC(=O)c3ccccc3)cc2)c1
EC50 [16]: > 50 µM (active)

Cc1cc(C(=O)CSc2nc3ccccc3o2)c(C)n1CC1CCCO1 (centres undefined)
EC50 [7]: 0.323 µM (active)
EC50 (H4): < 0.1 µM (active)
EC50 [10]: 0.231 µM (active)
EC50 [11]: 0.21 µM (active)

From ChEMBL document CHEMBL1201862, “PubChem BioAssay data set” (2004)
